# Test results: US20210338787A1 (priority 2020, published 2021)
# Counter-ions that a name gives are not always drawn. Like-named read-outs stand apart in the source and are kept apart here.
# B1: secretory leukocyte protease inhibitor (protein, UniProt P03973 26-132, looked up)
# Antileukoproteinase: SGKSFKAGVCPPKKSAQCLRYKKPECQSDWQCPGKKRCCPDTCGIKCLDPVDTPNPTRRKPGKCPVTYGQCLMLNPPNFCEMDGQCKRDLKCCMGMCGKSCVSPVKA
# What was measured:
# Caco-2 cells = conditions: tested concentrations (data not shown)
# SARS-CoV-2 [1] = type: cell-based
# SARS-CoV-2 [2] = type: cell-based; conditions: Calu-3 cells
# HEK-293T cells = type: cell-based, human; conditions: tested concentrations (data not shown)
# TMPRSS2 = biological target: T1, TMPRSS2 (Homo sapiens, UniProt O15393); experiment: TMPRSS2 proteolytic activity in TMPRSS2-overexpressing HEK-293T cells, fluorogenic substrate BOC-QAR-AMC; type: cell-based
# T1 construct: expressed in transfected cells; host or cells: HEK-293T
# T1 sequence (O15393 whole entry): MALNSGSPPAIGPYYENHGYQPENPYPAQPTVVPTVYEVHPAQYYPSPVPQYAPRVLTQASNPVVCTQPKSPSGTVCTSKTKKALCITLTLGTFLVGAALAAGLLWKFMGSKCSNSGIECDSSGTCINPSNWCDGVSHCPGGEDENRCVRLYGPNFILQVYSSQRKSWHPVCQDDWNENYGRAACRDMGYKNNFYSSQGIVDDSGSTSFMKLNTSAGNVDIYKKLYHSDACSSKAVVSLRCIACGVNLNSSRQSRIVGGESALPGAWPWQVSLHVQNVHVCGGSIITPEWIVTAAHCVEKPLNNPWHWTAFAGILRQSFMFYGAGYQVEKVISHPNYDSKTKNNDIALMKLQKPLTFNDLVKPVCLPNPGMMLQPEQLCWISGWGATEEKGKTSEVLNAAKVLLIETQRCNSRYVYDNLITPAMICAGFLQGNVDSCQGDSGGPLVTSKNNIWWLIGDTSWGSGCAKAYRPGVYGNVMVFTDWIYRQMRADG
# Experimental: B. Arbitrary fluorescence unit (AFU) measurements of control or TMPRSS-overexpressing cells incubated with BOC-QAR-AMC for 75 minutes at 37° C. are shown. Wells containing PBS and BOC-QAR-AMC were used as background fluorescence reads. C. Fluorescence of control or TMPRSS2-overexpressing cells was measured every 15 minutes for a total time of 180 minutes. D. The average proteolytic activity rate per minute of control or TMPRSS2-overexpressing cells. The fluorescent signal was measured by the UV filter (excitation 365 nm and emission 410 nm).
# The results in A-C are presented as the means±SE from at least 3 independent experiments performed in duplicate and/or triplicate.
# The following describes the development of an experimental framework for quantifying TMPRSS2 proteolytic activity. TMPRSS2 with a C-terminal V5 tag was overexpressed in a human cell line, HEK-293T, because of its high transfectability.
# The effect of protease inhibitors on TMPRSS2 activity was tested.
Molecule,toxicity in Caco-2 cells (Caco-2 cells),"decrease in viral load (genomic SARS-CoV-2 from intracellular RNA) compared with untreated control cells (SARS-CoV-2 [1]; Caco-2 cells, 10 μM, twenty hours after infection) [fold]",SARS-CoV-2 plaque formation (SARS-CoV-2 [2]; 24 hours after infection),SARS-CoV-2 plaque formation (SARS-CoV-2 [2]; 48 hours after infection),toxic effects in viability assays (HEK-293T cells),"IC50 (TMPRSS2; BOC-QAR-AMC, read-out: IC50 of inhibition of TMPRSS2 proteolytic activity) [nM]",decrease in viral load (genomic SARS-CoV-2 from intracellular RNA) compared with untreated control cells (SARS-CoV-2 [1]) [fold],inhibition of TMPRSS2 proteolytic activity (TMPRSS2; all tested concentrations)
"CN(C)C(=O)COC(=O)Cc1ccc(OC(=O)c2ccc(NC(=N)N)cc2)cc1 [camostat mesylate, reference compound]",nontoxic,−3.9,decreased SARS-CoV-2 plaque formation,effect of camostat lasted,–,–,–,–
alpha 1 antitrypsin [A1AT],nontoxic,–,–,–,did not demonstrate toxic effects,357,−2.6,–
B1,–,–,–,–,–,–,–,none of the tested concentrations of SLPI inhibited TMPRSS2 proteolytic activity
